Test results as given in US6262095A, “Use of tricyclic derivatives of 1,4-dihydro-1,4-dioxo-1H-naphthalene, novel compounds obtained and their application in theraphy” (Laboratoire Innothera, priority 1995, dated 2001).
Read-outs that look alike come from different tables or passages of the source. One block for each compound: values may come before it.

Assays:
[1] = tested on: saphenous vein in rabbits; experiment: Contractile effect on the rabbit saphenous vein precontracted by a depolarizing physiological solution (K+ 40 mM); assay type: cell-based; details: precontracted with 40 mM potassium; for EC50: read-out: ED50 (the source's name)
Experimental: The contractile effects are measured in vitro under static conditions on vascular capacitance or resistance rings of saphenous, femoral, jugular, mesenteric, and caval veins . . . and on femoral, carotid, basilar, or mesenteric arteries, as well as the thoracic or abdominal aorta . . . in rats (Wistar, 200-250 g), rabbits (New Zealand, 2-2.5 kg), guinea pigs (Dunkin Hartley 250-300 g).
The rings are placed in a chamber for isolated organs (25 mL for capacitance vessels and 2.5 mL for resistance vessels according to Mulvany), and maintained under isometric conditions using two rigid threads inserted inside the vessel, avoiding causing damage to the endothelium. The vessels are bathed in a modified Krebs solution (in mM: NaCl=118; KCl=4.6; CaCl2 =2.5; MgSO4 =1.2; KH2 PO4 =1.17; NaHCO3 =25; glucose=11), continuously aerated using a gaseous mixture of 95% O2 and 5% Co2, at a pH=7.4, and regulated by thermostat at 37° C. The rings are adjusted to their optimal point as far as the tension-length relationship is concerned. The tensions developed generate an electrical signal through the intermediary of a force sensor (Wheatstone bridge). […] The pharmacological studies are carried out after a few standardized preliminary contractile stimulations using a depolarizing solution (hyperpotassic type obtained by replacing NaCl with KCl in equimolar quantities), along with rinsings and periods of equilibration in a pure physiological solution. The presence of endothelium is verified by the relaxation induced by increasing the concentration of acetylcholine after the stabilization of a vascular precontraction.
The forces of contraction developed by the vascular rings in response to the different compounds are studied on quiescent or electrically stimulated vessels (5-8 Hz), by a "physiological" depolarizing hyperpotassic solution (KCl: 20, 40 mM), by noradrenaline (increasing concentrations), [and by] serotonin (increasing concentrations).
The contractions are expressed in mg force or as a percentage of the maximum contraction at the time of the depolarization with a "physiological" hyperpotassic solution.
The contractile effect of different compounds on the saphenous vein in rabbits, precontracted by a depolarizing "physiological" solution with a potassium concentration of 40 mM, is given as an illustration; the maximum effect produced by each compound is expressed as a percentage of the maximum contraction induced by depolarizing hyperpotassic solutions and as value of ED50): […]

[2] = tested on: capillary resistance of rats; experiment: Capillary resistance of rats after oral administration (petechial index); assay type: in vivo, rat (Wistar); details: rat
Experimental: The increase in the capillary resistance is evaluated by the modification of the petechial index (negative pressure inducing the extravasation of the erythrocytes), measured by a method derived from the angiosterrometer of Parrot.
The studies are carried out on male Wistar rats with an average weight of 200 g (approximate age six weeks). The bottom area of the back is shorn, then the hair is pulled by means of a paste based on a derivative of thioglycolic acid and calcium hydroxide. After approximately 30 min, the skin is abundantly rinsed and dried.
On the day of the study, the rats are maintained without constraint. A low pressure of 80 mm of mercury is applied. If the petechiae (extravasation of erythrocytes) have not appeared within 15 sec, the low pressure is increased as a countermeasure, keeping the suction cap at the same place.
The minimum low pressure where petechias appear, in mm of mercury, expresses the basal capillary resistance (before any treatment). Two measurements are made for each test at different sites on of the back.
The rats are treated by the oral route. […] All the measurements are done in the blind mode.
A percentage of variation in the capillary resistances of the animals treated compared to their basal capillary resistance is calculated for each compound studied, at each treatment time and compared with the control group (excipient only) or the reference group.

[3] = tested on: hyperpermeability induced by zymosan in rats; experiment: Inflammatory hyperpermeability induced by zymosan in rats; assay type: in vivo, rat (Wistar); details: rat, oral
Experimental: The vascular permeability is studied in vivo by measuring the extravasation of albumin, the quantity of which is determined using an albumin-binding dye (Evans blue).
The hyperpermeability is induced by the intradermal injection of a solution of histamine, bradykinin, or zymosan.
The abdominal walls of the rats (Wistar, 200-230 g) are shorn 1 h before the start of the experiment. The product to be tested is injected by the intraperitoneal route or orally 1-4 h before the sacrifice. The rats are anesthetized with a halothane mixture. They then receive an intradermal injection in their abdomen of 0.10 or 0.15 mL (or for histamine 6.7 or […]) of inflammatory agent and an intravenous injection of 1 mL of 0.5% Evans blue solution in the vein of the penis. These injections are carried out 30 min before the sacrificing.
30 min after these two injections, the rats are sacrificed by cervical dislocation.
At the site of the injection of the inflammatory agent, the skin is cut and placed into glass tubes with a ground[-glass] neck containing 3 mL of fuming hydrochloric acid. […] After allowing the preparation to stand for 30 min, 7 mL of dichloromethane are added. The tubes are periodically agitated for 1 h. The aqueous phase is eliminated by aspiration, and the organic "dichloromethane" phase is filtered. The optical densities are quantified by absorption spectrophotometry at a wavelength of 620 nm, against a blank [control] containing only dichloromethane. The averages of the optical densities of the different lots of treated or control animals are calculated, then a percentage of variation of the values corresponding to the treated [experimental] animals compared to those of the control animals is calculated.

mice = experiment: Single oral administration toxicity in mice; assay type: in vivo, mouse
Description: Moreover, the compounds of the invention and their possible salts have a very low toxicity.

[4] = single oral administration of 500 mg/kg
[5] = Oryctolagus cuniculus, % of maximum contraction induced by hyperpotassic solutions
[6] = 0.1 mg/kg, ** granulometry: 0.6-0.7 mm

EC50 [1]: 0.041 µM
Compound: 4,9-Dihydro-4,9-dioxo-2-(2-furyl)-5-hydroxynaphtho-[2,3-d]thiazole or 4,9-Dihydro-4,9-dioxo-2-(2-furyl)-8-hydroxynaphtho-[2,3-d]thiazole [Example 57]
Emax (% maximum contraction) ([1]; % of maximum contraction induced by hyperpotassic solutions): 22±3 % maximum contraction

Compound: Cc1nc2c(n1C)C(=O)c1ccccc1C2=O.O=S(=O)(O)O [Example 1, 4,9-Dihydro-4,9-dioxo-1,2-dimethyl-1H-naphtho[2,3-d]imidazole sulfate]
Increase of capillary resistance, effects after 4 h ([2]; 0.1 mg/kg): 37 % of the control | Increase of capillary resistance, effect after 6 h ([2]; 0.1 mg/kg): 35 % of the control | Zymosan-induced hyperpermeability, effect after 2 h ([3]; 5 mg/kg): -28 % of the control | Zymosan-induced hyperpermeability, effect after 4 h ([3]; 5 mg/kg): -28 % of the control

Compound: O=C1c2ccccc2C(=O)c2[nH]c(-c3ccccc3F)nc21 [Example 2, 4,9-Dihydro-4,9-dioxo-2-(2-fluorophenyl)-1H-naphtho[2,3-d]imidazole]
Increase of capillary resistance, effects after 4 h ([2]; 0.1 mg/kg): 25 % of the control | Increase of capillary resistance, effect after 6 h ([2]; 0.1 mg/kg): 28 % of the control

Compound: O=C1c2ccccc2C(=O)c2oc(-c3ccc(F)cc3)nc21 [Example 5, 4,9-Dihydro-4,9-dioxo-2-(4-fluorophenyl)-naphtho[2,3-d]oxazole]
toxic effect and mortality (mice; [4]): no observable toxic effect and no mortality

Compound: Cc1ccccc1-c1nc2c(o1)C(=O)c1ccccc1C2=O [Example 6, 4,9-Dihydro-4,9-dioxo-2-(2-methylphenyl)-naphtho[2,3-d]oxazole]
toxic effect and mortality (mice; [4]): no observable toxic effect and no mortality

EC50 ([1]; Oryctolagus cuniculus): 0.036 µM
Compound: Cc1cccc(-c2nc3c(o2)C(=O)c2ccccc2C3=O)c1 [Example 7, 4,9-Dihydro-4,9-dioxo-2-(3-methylphenyl)-naphtho[2,3-d]oxazole]
Emax [1, 5]: 17 ± 2%

Compound: O=C1c2ccccc2C(=O)c2oc(-c3ccc(Cl)cc3)nc21 [Example 10, 2-(4-Chlorophenyl)-4,9-dihydro-4,9-dioxo-naphtho[2,3-d]oxazole]
Increase of capillary resistance, effects after 4 h ([2]; 0.1 mg/kg): 25 % of the control | Increase of capillary resistance, effect after 6 h ([2]; 0.1 mg/kg): 46 % of the control

Compound: O=C1c2ccccc2C(=O)c2sc(-c3cccc(F)c3)nc21 [Example 13, 4,9-Dihydro-4,9-dioxo-2-(3-fluorophenyl)-naphtho[2,3-d]thiazole]
Emax [1, 5]: 21 ± 3% | EC50 ([1]; Oryctolagus cuniculus): 0.057 µM | toxic effect and mortality (mice; single oral administration, 1 g/kg): no observable toxic effect and no mortality

Compound: O=C1c2ccccc2C(=O)c2sc(-c3ccc(F)cc3)nc21 [Example 14, 4,9-Dihydro-4,9-dioxo-2-(4-fluorophenyl)naphtho[2,3-d]thiazole]
Zymosan-induced hyperpermeability, effect after 2 h ([3]; 0.1 mg/kg): -31 % of the control | Zymosan-induced hyperpermeability, effect after 4 h ([3]; 0.1 mg/kg): -15 % of the control

Compound: O=C1c2ccccc2C(=O)c2sc(-c3ccc(F)cc3F)nc21 [Example 15, 2-(2,4-Difluorophenyl)-4,9-dihydro-4,9-dioxo-naphtho[2,3-d]thiazole]
Increase of capillary resistance, effects after 4 h ([2]; 0.1 mg/kg): 20 % of the control | Increase of capillary resistance, effect after 6 h ([2]; 0.1 mg/kg): 27 % of the control

Compound: O=C1c2ccccc2C(=O)c2sc(-c3ccncc3)nc21.O=S(=O)(O)O [Example 17, 4,9-Dihydro-4,9-dioxo-2-(4-pyridyl)-naphtho[2,3-d]thiazole sulfate]
Zymosan-induced hyperpermeability, effect after 2 h ([3]; 0.1 mg/kg): -15 % of the control | Zymosan-induced hyperpermeability, effect after 4 h ([3]; 0.1 mg/kg): -23 % of the control

EC50 ([1]; Oryctolagus cuniculus): 0.088 µM
Compound: O=C1c2ccccc2C(=O)c2sc(-c3ccoc3)nc21 [Example 18, 4,9-Dihydro-4,9-dioxo-2-(3-furyl)naphtho[2,3-d]thiazole]
Emax [1, 5]: 39 ± 6% | Increase of capillary resistance, effects after 4 h ([2]; 5 mg/kg): 25 % of the control | Increase of capillary resistance, effect after 6 h ([2]; 5 mg/kg): 28 % of the control

EC50 ([1]; Oryctolagus cuniculus): 0.075 µM
Compound: O=C1c2ccccc2C(=O)c2sc(-c3ccc(Cl)o3)nc21 [Example 19, 2-(5-Chloro-furan-2-yl)-4,9-dihydro-4,9-dioxo-naphtho[2,3-d]thiazole]
Emax [1, 5]: 20 ± 8%

Compound: COc1ccc2c(c1)C(=O)c1sc(-c3ccccc3)nc1C2=O [Example 25, 4,9-Dihydro-4,9-dioxo-7-methoxy-2-phenylnaphtho[2,3-d]thiazole]
Zymosan-induced hyperpermeability, effect after 2 h ([3]; 0.1 mg/kg): -14 % of the control | Zymosan-induced hyperpermeability, effect after 4 h ([3]; 0.1 mg/kg): -17 % of the control

Compound: COc1ccc2c(c1)C(=O)c1nc(-c3ccccc3)sc1C2=O [Example 26, 4,9-Dihydro-4,9-dioxo-6-methoxy-2-phenylnaphtho[2,3-d]thiazole]
Zymosan-induced hyperpermeability, effect after 2 h ([3]; 0.1 mg/kg): -14 % of the control | Zymosan-induced hyperpermeability, effect after 4 h ([3]; 0.1 mg/kg): -24 % of the control

EC50 ([1]; Oryctolagus cuniculus): 0.037 µM
Compound: O=C1c2ccccc2C(=O)c2sc(-n3cccc3)nc21 [Example 28, 4,9-Dihydro-4,9-dioxo-2-(1-pyrrolyl)-naphtho-[2,3]-thiazole]
Emax [1, 5]: 29 ± 2% | Increase of capillary resistance, effects after 4 h [2, 6]: 10 % of the control | Increase of capillary resistance, effect after 6 h [2, 6]: 13 % of the control | Zymosan-induced hyperpermeability, effect after 2 h ([3]; 5 mg/kg): -29 % of the control | Zymosan-induced hyperpermeability, effect after 4 h ([3]; 5 mg/kg): 0 % of the control

EC50 ([1]; Oryctolagus cuniculus): 0.16 µM
Compound: Cc1ccc(-c2nc3c(s2)C(=O)c2ccccc2C3=O)o1 [Example 38, 4,9-Dihydro-4,9-dioxo-2-(5-methyl-2-furyl)naphtho-[2,3-d]thiazole]
Emax [1, 5]: 12 ± 1% | Zymosan-induced hyperpermeability, effect after 2 h ([3]; 0.1 mg/kg): -12 % of the control | Zymosan-induced hyperpermeability, effect after 4 h ([3]; 0.1 mg/kg): -3 % of the control

EC50 ([1]; Oryctolagus cuniculus): 0.053 µM
Compound: COc1ccc2c(c1)C(=O)c1sc(-c3ccco3)nc1C2=O [Example 59, 4,9-Dihydro-4,9-dioxo-2-(2-furyl)-7-methoxynaphtho-[2,3-d]thiazole]
Emax [1, 5]: 18 ± 4% | Zymosan-induced hyperpermeability, effect after 2 h ([3]; 0.1 mg/kg): -13 % of the control | Zymosan-induced hyperpermeability, effect after 4 h ([3]; 0.1 mg/kg): +21 % of the control

EC50 ([1]; Oryctolagus cuniculus): 0.09 µM
Compound: Nc1nc2c(s1)C(=O)c1ccccc1C2=O [Example i, 2-Amino-4,9-dihydro-4,9-dioxonaphtho[2,3-d]thiazole]
Emax [1, 5]: 18 ± 1%

EC50 ([1]; Oryctolagus cuniculus): 0.07 µM
Compound: O=C1c2ccccc2C(=O)c2sc(-c3ccccn3)nc21 [Example k, 4,9-Dihydro-4,9-dioxo-2-(2-pyridyl)-naphtho[2,3-d]thiazole]
Emax [1, 5]: 26 ± 9%
